Laboratory results: patent publication US20100061982A1, “3-SUBSTITUTED-1H-INDOLE, 3-SUBSTITUTED-1H-PYRROLO[2,3-B]PYRIDINE AND 3-SUBSTITUTED-1H-PYRROLO[3,2-B]PYRIDINE COMPOUNDS, THEIR USE AS MTOR KINASE AND PI3 KINASE INHIBITORS, AND THEIR SYNTHESES” (priority 2008, published 2010)
In brackets after ≈: the same amount, converted by molar mass.

Experiments:
PI3K alpha = PI3K alpha (Homo sapiens, UniProt P42336); test: PI3K-alpha Fluorescence Polarization Assay; format: biochemical
[1] = CACO2 permeability a-b/b-a; format: in vitro ADME; conditions: human, Caco-2; for Papp A→B: a − b (first value of cell), read-out: CACO2 Pe a − b; for Papp B→A: b − a (second value of cell), read-out: CACO2 Pe b − a
[2] = Microsome Stability (15 min), human; format: in vitro ADME; conditions: microsomes, Phase I (NADPH), read-out: Microsome Stability (15 min) T ½ Phase I human
[3] = PAMPA permeability pH 7.4
mTOR = mTOR (Homo sapiens, UniProt P42345); test: mTOR Enzyme Assay (DELFIA, purified enzyme); format: biochemical; parameters: FLAG; conditions: read-out: mTOR Mean IC50
[4] = Buffer Stability (37° C.)
[5] = Microsome Stability (15 min), nude mouse; format: in vitro ADME; conditions: microsomes, Phase I (NADPH), read-out: Microsome Stability (15 min) T ½ Phase I nude mouse
[6] = Plasma Stability (37° C.), rat
[7] = Plasma Stability (37° C.), nude mouse
[8] = Microsome Stability (15 min), rat; format: in vitro ADME; conditions: microsomes, Phase I (NADPH), read-out: Microsome Stability (15 min) T ½ Phase I rat
Solubility pH 7.4 = conditions: pH 7.4, aqueous buffer
[9] = In vivo blood/plasma and tumor levels of prodrug and metabolites after 50 mg, kg po; conditions: for plasma prodrug concentration / tumor prodrug concentration: 50 mg
[10] = test system: human tumor xenograft models; conditions: prostrate (PC-3) and glioblastoma (U-87); cited from earlier work

Chain of PI3K alpha (P42336 whole entry, species assumed): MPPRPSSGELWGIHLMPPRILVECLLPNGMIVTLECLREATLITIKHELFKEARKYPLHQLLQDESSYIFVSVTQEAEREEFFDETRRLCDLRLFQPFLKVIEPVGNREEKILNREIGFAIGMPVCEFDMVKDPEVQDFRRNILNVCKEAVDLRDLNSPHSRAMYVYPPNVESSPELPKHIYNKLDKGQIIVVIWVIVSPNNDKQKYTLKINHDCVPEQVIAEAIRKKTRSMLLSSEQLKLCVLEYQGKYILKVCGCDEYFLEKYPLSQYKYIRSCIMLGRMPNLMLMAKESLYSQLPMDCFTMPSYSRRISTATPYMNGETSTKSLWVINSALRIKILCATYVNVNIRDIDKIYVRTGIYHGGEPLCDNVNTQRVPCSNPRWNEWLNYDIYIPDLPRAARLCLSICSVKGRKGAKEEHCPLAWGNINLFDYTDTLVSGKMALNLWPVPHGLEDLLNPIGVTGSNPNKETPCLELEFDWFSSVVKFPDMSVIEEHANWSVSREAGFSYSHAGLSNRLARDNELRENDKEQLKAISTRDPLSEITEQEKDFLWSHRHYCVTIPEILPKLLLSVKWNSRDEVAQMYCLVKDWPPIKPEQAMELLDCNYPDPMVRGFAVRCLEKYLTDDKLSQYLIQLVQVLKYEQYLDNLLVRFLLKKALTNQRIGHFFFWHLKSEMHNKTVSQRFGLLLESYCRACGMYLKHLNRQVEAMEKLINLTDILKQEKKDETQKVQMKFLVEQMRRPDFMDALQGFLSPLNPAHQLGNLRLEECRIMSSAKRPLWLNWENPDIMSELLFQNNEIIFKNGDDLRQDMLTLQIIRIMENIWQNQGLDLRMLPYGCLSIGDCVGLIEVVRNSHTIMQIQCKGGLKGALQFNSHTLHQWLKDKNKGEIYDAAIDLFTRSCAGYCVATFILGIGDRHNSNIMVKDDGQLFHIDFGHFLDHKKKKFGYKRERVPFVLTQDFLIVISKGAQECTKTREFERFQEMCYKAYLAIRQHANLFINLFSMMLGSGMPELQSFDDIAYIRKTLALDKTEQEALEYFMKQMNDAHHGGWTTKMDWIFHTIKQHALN
Chain of PI3K alpha (P27986 whole entry partner, species assumed): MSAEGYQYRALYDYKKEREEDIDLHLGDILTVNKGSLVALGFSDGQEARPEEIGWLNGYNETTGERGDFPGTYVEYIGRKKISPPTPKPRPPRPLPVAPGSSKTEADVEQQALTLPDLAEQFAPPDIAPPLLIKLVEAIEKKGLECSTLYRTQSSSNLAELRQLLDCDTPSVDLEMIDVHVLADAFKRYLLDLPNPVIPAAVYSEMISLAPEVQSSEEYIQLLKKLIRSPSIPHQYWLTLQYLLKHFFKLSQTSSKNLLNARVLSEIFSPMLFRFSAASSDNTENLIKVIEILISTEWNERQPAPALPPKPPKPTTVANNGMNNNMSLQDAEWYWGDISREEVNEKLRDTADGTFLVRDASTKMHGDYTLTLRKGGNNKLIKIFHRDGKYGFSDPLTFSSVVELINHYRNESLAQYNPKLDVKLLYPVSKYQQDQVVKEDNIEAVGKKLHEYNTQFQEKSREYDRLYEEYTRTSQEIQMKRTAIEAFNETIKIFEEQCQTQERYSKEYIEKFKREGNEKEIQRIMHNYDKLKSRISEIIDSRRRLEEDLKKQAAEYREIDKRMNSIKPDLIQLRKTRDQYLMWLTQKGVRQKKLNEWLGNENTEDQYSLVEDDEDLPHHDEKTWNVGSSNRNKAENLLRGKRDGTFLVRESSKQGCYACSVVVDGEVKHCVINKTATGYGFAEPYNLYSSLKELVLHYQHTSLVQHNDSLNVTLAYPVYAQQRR

CN(C)C(=O)Oc1cc(OC(=O)N(C)C)c2c(c1)O/C(=C\c1cn(C)c3cccc(-c4ccccc4)c13)C2=O [Example 48, (2Z)-2-[(1-methyl-4-phenyl-1H-indol-3-yl)methylene]-3-oxo-2,3-dihydro-1-benzofuran-4,6-diyl bis(dimethylcarbamate)]
IC50 (PI3K alpha): > 10 µM
Papp A→B [1]: 0.5 ×10⁻⁶ cm/s
Papp B→A [1]: 0.5 ×10⁻⁶ cm/s
half-life [2]: 25 min
PAMPA Pe [3]: Undetected
IC50 (mTOR): 3.15 µM
Buffer Stability (37° C.) % Remaining (at 16-23 hours) SGF [4]: 100%
Buffer Stability (37° C.) % Remaining (at 16-23 hours) SIF [4]: 100%
Buffer Stability (37° C.) % Remaining (at 16-23 hours) pH 1 [4]: 100%
Buffer Stability (37° C.) % Remaining (at 16-23 hours) pH 4.5 [4]: 100%
Buffer Stability (37° C.) % Remaining (at 16-23 hours) pH 6.6 [4]: 100%
Buffer Stability (37° C.) % Remaining (at 16-23 hours) pH 7.4 [4]: 100%
Buffer Stability (37° C.) % Remaining (at 16-23 hours) pH 9 [4]: 100%
half-life [5]: 14 min
Plasma Stability (37° C.) % Remaining (3-3.5 hours) rat [6]: >100%
Plasma Stability (37° C.) % Remaining (3-3.5 hours) nude mouse [7]: 80%

COc1ccc2c(c1)c(/C=C1\Oc3cc(OC(=O)N(C(C)C)C(C)C)ccc3C1=O)c(C)n2CCN1CCN(C)CC1 [Example 47, (2Z)-2-({5-methoxy-2-methyl-1-[2-(4-methylpiperazin-1-yl)ethyl]-1H-indol-3-yl}methylene)-3-oxo-2,3-dihydro-1-benzofuran-6-yl diisopropylcarbamate]
IC50 (PI3K alpha): > 10 µM
PAMPA Pe [3]: Undetected
half-life [8]: 16 min
IC50 (mTOR): > 4 µM
Buffer Stability (37° C.) % Remaining (at 16-23 hours) SGF [4]: 98%
Buffer Stability (37° C.) % Remaining (at 16-23 hours) SIF [4]: 94%
Buffer Stability (37° C.) % Remaining (at 16-23 hours) pH 1 [4]: 97%
Buffer Stability (37° C.) % Remaining (at 16-23 hours) pH 4.5 [4]: 100%
Buffer Stability (37° C.) % Remaining (at 16-23 hours) pH 6.6 [4]: 95%
Buffer Stability (37° C.) % Remaining (at 16-23 hours) pH 7.4 [4]: 100%
Buffer Stability (37° C.) % Remaining (at 16-23 hours) pH 9 [4]: 96%
Plasma Stability (37° C.) % Remaining (3-3.5 hours) rat [6]: 92%
Plasma Stability (37° C.) % Remaining (3-3.5 hours) nude mouse [7]: 82%

COc1ccc2c(c1)c(/C=C1\Oc3cc(OC(=O)N(C)C)cc(OC(=O)N(C)C)c3C1=O)c(C)n2CCN1CCN(C)CC1 [Example 12, (2Z)-2-({5-methoxy-2-methyl-1-[2-(4-methylpiperazin-1-yl)ethyl]-1H-indol-3-yl}methylene)-3-oxo-2,3-dihydro-1-benzofuran-4,6-diyl bis(dimethylcarbamate)]
solubility (Solubility pH 7.4): 40 µg/mL (≈ 66 µM)
IC50 (PI3K alpha): > 10 µM
Papp A→B [1]: 1.98 ×10⁻⁶ cm/s
Papp B→A [1]: 3.36 ×10⁻⁶ cm/s
half-life [2]: 9 min
plasma prodrug concentration ([9]; 0.5 h): 2444, ng, ml
tumor prodrug concentration ([9]; 0.5 h): 344, ng, ml
plasma prodrug concentration ([9]; 2 h): 3871, ng, ml
tumor prodrug concentration ([9]; 2 h): 1278, ng, ml
tumor prodrug concentration ([9]; 6 h): 629 ng, ml
plasma prodrug concentration ([9]; 6 h (third value)): 2027, ng, ml
plasma prodrug concentration ([9]; 10 h): 443 ng, ml
tumor prodrug concentration ([9]; 10 h): 69 ng, ml
plasma prodrug concentration ([9]; 24 h): 1 ng, ml
tumor prodrug concentration ([9]; 24 h): bql
tumor precursor phenolic cmpd concentration (metabolite) ([9]; prodrug 50 mg, 6 h (third value)): bql
blood 4-OH, 6-OR mono prodrug concentration (metabolite) ([9]; prodrug 50 mg, 24 h): bql
blood 6-OH, 4-OR mono prodrug concentration (metabolite) ([9]; prodrug 50 mg, 24 h): bql
tumor 6-OH, 4-OR mono prodrug concentration (metabolite) ([9]; prodrug 50 mg, 24 h): bql
PAMPA Pe [3]: 0.78 10e−6 cm/s
half-life [8]: 23 min
Buffer Stability (37° C.) % Remaining (at 16-23 hours) SGF [4]: 100%
Buffer Stability (37° C.) % Remaining (at 16-23 hours) SIF [4]: 100%
Buffer Stability (37° C.) % Remaining (at 16-23 hours) pH 1 [4]: 100%
Buffer Stability (37° C.) % Remaining (at 16-23 hours) pH 4.5 [4]: 100%
Buffer Stability (37° C.) % Remaining (at 16-23 hours) pH 6.6 [4]: 100%
Buffer Stability (37° C.) % Remaining (at 16-23 hours) pH 7.4 [4]: 100%
Buffer Stability (37° C.) % Remaining (at 16-23 hours) pH 9 [4]: 90%
half-life [5]: 23 min
Plasma Stability (37° C.) % Remaining (3-3.5 hours) rat [6]: 71%
Plasma Stability (37° C.) % Remaining (3-3.5 hours) nude mouse [7]: 32%

COc1ccc2c(c1)c(/C=C1\Oc3cc(OC(=O)N(C)C)cc(OC(=O)N(C)C)c3C1=O)cn2CCCN(C)C [Example 8, (2Z)-2-({1-[3-(dimethylamino)propyl]-5-methoxy-1H-indol-3-yl}methylene)-3-oxo-2,3-dihydro-1-benzofuran-4,6-diyl bis(dimethylcarbamate)]
solubility (Solubility pH 7.4): 28 µg/mL (≈ 50.9 µM)
IC50 (PI3K alpha): > 10 µM
Papp A→B [1]: 4.82 ×10⁻⁶ cm/s
Papp B→A [1]: 7.22 ×10⁻⁶ cm/s
half-life [2]: 15 min
plasma prodrug concentration ([9]; 0.5 h): 3122, ng, ml
tumor prodrug concentration ([9]; 0.5 h): 2170, ng, ml
plasma prodrug concentration ([9]; 2 h): 3876, ng, ml
tumor prodrug concentration ([9]; 2 h): 4820, ng, ml
tumor prodrug concentration ([9]; 6 h): 1482, ng, ml
plasma prodrug concentration ([9]; 6 h (third value)): 2170, ng, ml
plasma prodrug concentration ([9]; 10 h): 497 ng, ml
tumor prodrug concentration ([9]; 10 h): 556 ng, ml
plasma prodrug concentration ([9]; 24 h): 3 ng, ml
tumor prodrug concentration ([9]; 24 h): bql
blood 4-OH, 6-OR mono prodrug concentration (metabolite) ([9]; prodrug 50 mg, 24 h): bql
blood 6-OH, 4-OR mono prodrug concentration (metabolite) ([9]; prodrug 50 mg, 24 h): bql
tumor 4-OH, 6-OR mono prodrug concentration (metabolite) ([9]; prodrug 50 mg, 24 h): bql
tumor 6-OH, 4-OR mono prodrug concentration (metabolite) ([9]; prodrug 50 mg, 24 h): bql
blood precursor phenolic cpd concentration (metabolite) ([9]; prodrug 50 mg, all time points (0.5, 2, 6, 10, 24 h)): bql at all
PAMPA Pe [3]: 4.53 10e−6 cm/s
half-life [8]: > 30 min
Buffer Stability (37° C.) % Remaining (at 16-23 hours) SGF [4]: 100%
Buffer Stability (37° C.) % Remaining (at 16-23 hours) SIF [4]: 100%
Buffer Stability (37° C.) % Remaining (at 16-23 hours) pH 1 [4]: 100%
Buffer Stability (37° C.) % Remaining (at 16-23 hours) pH 4.5 [4]: 100%
Buffer Stability (37° C.) % Remaining (at 16-23 hours) pH 6.6 [4]: 100%
Buffer Stability (37° C.) % Remaining (at 16-23 hours) pH 7.4 [4]: 100%
Buffer Stability (37° C.) % Remaining (at 16-23 hours) pH 9 [4]: 91%
half-life [5]: 23 min
Plasma Stability (37° C.) % Remaining (3-3.5 hours) rat [6]: 50%
Plasma Stability (37° C.) % Remaining (3-3.5 hours) nude mouse [7]: 7%

Cn1c(=O)n(-c2ccc(C(C)(C)C#N)cc2)c2c3cc(-c4cnc5ccccc5c4)ccc3ncc21 [NVP-BEZ-235, 2-methyl-2-(4-(3-methyl-2-oxo-8-(quinolin-3-yl)-2,3-dihydro-1H-imidazo[4,5-c]quinolin-1-yl)phenyl)propanenitrile]
activity in human tumor xenograft models [10]: demonstrated activity

COc1ccc2c(c1)c(/C=C1\Oc3cc(OC(=O)N(C)c4ccccc4)ccc3C1=O)c(C)n2CCN1CCN(C)CC1 [Example 46, (2Z)-2-({5-methoxy-2-methyl-1-[2-(4-methylpiperazin-1-yl)ethyl]-1H-indol-3-yl}methylene)-3-oxo-2,3-dihydro-1-benzofuran-6-yl methyl(phenyl)carbamate]
PAMPA Pe [3]: Undetected
half-life [8]: 10 min
IC50 (mTOR): > 4 µM
Buffer Stability (37° C.) % Remaining (at 16-23 hours) SGF [4]: 98%
Buffer Stability (37° C.) % Remaining (at 16-23 hours) SIF [4]: 100%
Buffer Stability (37° C.) % Remaining (at 16-23 hours) pH 1 [4]: 101%
Buffer Stability (37° C.) % Remaining (at 16-23 hours) pH 4.5 [4]: 99%
Buffer Stability (37° C.) % Remaining (at 16-23 hours) pH 6.6 [4]: 98%
Buffer Stability (37° C.) % Remaining (at 16-23 hours) pH 7.4 [4]: 97%
Buffer Stability (37° C.) % Remaining (at 16-23 hours) pH 9 [4]: 96%
Plasma Stability (37° C.) % Remaining (3-3.5 hours) rat [6]: 22%
Plasma Stability (37° C.) % Remaining (3-3.5 hours) nude mouse [7]: 19%

CN(C)C(=O)Oc1cc(OC(=O)N(C)C)c2c(c1)O/C(=C\c1cn(C)c3nccc(-c4ccccc4)c13)C2=O [Example 43, (2Z)-2-[(1-methyl-4-phenyl-1H-pyrrolo[2,3-b]pyridin-3-yl)methylene]-3-oxo-2,3-dihydro-1-benzofuran-4,6-diyl bis(dimethylcarbamate)]
IC50 (PI3K alpha): > 10 µM
Papp A→B [1]: 2.2 ×10⁻⁶ cm/s
Papp B→A [1]: 1 ×10⁻⁶ cm/s
half-life [2]: 11 min
PAMPA Pe [3]: Undetected
IC50 (mTOR): > 4 µM
Buffer Stability (37° C.) % Remaining (at 16-23 hours) SGF [4]: 100%
Buffer Stability (37° C.) % Remaining (at 16-23 hours) SIF [4]: 100%
Buffer Stability (37° C.) % Remaining (at 16-23 hours) pH 1 [4]: 100%
Buffer Stability (37° C.) % Remaining (at 16-23 hours) pH 4.5 [4]: 100%
Buffer Stability (37° C.) % Remaining (at 16-23 hours) pH 6.6 [4]: 100%
Buffer Stability (37° C.) % Remaining (at 16-23 hours) pH 7.4 [4]: 100%
Buffer Stability (37° C.) % Remaining (at 16-23 hours) pH 9 [4]: 100%
half-life [5]: 12 min
Plasma Stability (37° C.) % Remaining (3-3.5 hours) rat [6]: 54%
Plasma Stability (37° C.) % Remaining (3-3.5 hours) nude mouse [7]: 52%

CN(C)C(=O)Oc1cccc2c1C(=O)/C(=C/c1cn(C)c3nccc(N4CC5CCC(C4)O5)c13)O2 [Example 44, (2Z)-2-{[1-methyl-4-(8-oxa-3-azabicyclo[3.2.1]oct-3-yl)-1H-pyrrolo[2,3-b]pyridin-3-yl]methylene}-3-oxo-2,3-dihydro-1-benzofuran-4-yl dimethylcarbamate]
IC50 (PI3K alpha): 2.49 µM
half-life [2]: 8 min
PAMPA Pe [3]: Undetected
half-life [8]: 3 min
IC50 (mTOR): 0.031 µM
Buffer Stability (37° C.) % Remaining (at 16-23 hours) SGF [4]: 102%
Buffer Stability (37° C.) % Remaining (at 16-23 hours) SIF [4]: 100%
Buffer Stability (37° C.) % Remaining (at 16-23 hours) pH 1 [4]: 102%
Buffer Stability (37° C.) % Remaining (at 16-23 hours) pH 4.5 [4]: 100%
Buffer Stability (37° C.) % Remaining (at 16-23 hours) pH 6.6 [4]: 100%
Buffer Stability (37° C.) % Remaining (at 16-23 hours) pH 7.4 [4]: 100%
Buffer Stability (37° C.) % Remaining (at 16-23 hours) pH 9 [4]: 100%
half-life [5]: 4 min
Plasma Stability (37° C.) % Remaining (3-3.5 hours) rat [6]: 51%
Plasma Stability (37° C.) % Remaining (3-3.5 hours) nude mouse [7]: 64%
